# System: soybean plants containing event EE-GM4
# Experiment: HPPD inhibitor herbicide tolerance field trials on soybean plants containing EE-GM4
# Format: in vivo, Glycine max
# Conditions: for tolerance / crop damage of plants with EE-GM4, herbicide applied post-emergence / tolerance of plants with EE-GM4 to herbicide applied pre-emergence: field, 2 years; for tolerance / crop damage of plants with EE-GM4, herbicide applied post-emergence: post-emergence at V2-V3 stage with crop oil concentrate and ammonium sulfate, 2x dose (210 gr/ha); for tolerance of plants with EE-GM4 to herbicide applied pre-emergence: 4x dose (420 gr/ha IFT, 840 gr/ha mesotrione); for average maximum phytotoxicity: plants with EE-GM4
# Source text: Numbers in ( ) below a treatment give the number of trials included in the bar, the number on top of each bar gives the average maximum phytotoxicity value for that treatment. Treatments applied were: IFT=isoxaflutole, MST=mesotrione, PE=pre-emergence, PO=post-emergence (at V2-V3 stage, with adjuvants crop oil concentrate and ammonium sulfate added to increase herbicide activity). Rates shown are in gram active ingredient/hectare (4× dose in pre-emergence, 2× dose in post-emergence).
# Tolerance of plants comprising EE-GM4 to HPPD inhibitor herbicides was tested at different locations in the field over 2 years. […] All post-emergence treatments were at the V2-V3 stage, with adjuvants crop oil concentrate and ammonium sulfate added to increase herbicide activity.
# The “maximum phytotoxicity” as used herein is the highest phytotoxicity rating recorded at any observation during the duration of a trial (with 3 to 4 observations per trial). In existing weed control applications, a normal (1×) dose for isoxaflutole (IFT) in pre- or post-emergence application and for MST in post-emergence application is 105 gr/ha, and a normal (1×) dose for mesotrione in pre-emergence application is 210 gr/ha.
# Also, in several field trials across 2 years, soybean plants with event EE-GM4 had good tolerance towards experimental HPPD inhibitor compound 2-methyl-N-(5-methyl-1,3,4-oxadiazol-2-yl)-3-(methylsulfonyl)-4-(trifluoromethyl)benzamide (U.S. Pat. No. 9,101,141) when applied pre-emergence at 400 gr ai/ha or post-emergence at 200 gr ai/ha, respectively (the average maximum phytotoxicity value for each treatment was below 20%). […] All post-emergence treatments were at the V2-V3 stage, with adjuvants crop oil concentrate and ammonium sulfate added to increase herbicide activity.
SMILES,"tolerance / crop damage of plants with EE-GM4, herbicide applied post-emergence",tolerance of plants with EE-GM4 to herbicide applied pre-emergence,"average maximum phytotoxicity (post-emergence at 200 gr ai/ha, V2-V3 stage with adjuvants)","average maximum phytotoxicity (pre-emergence at 400 gr ai/ha, field trials across 2 years)","average maximum phytotoxicity (post-emergence at 100-150 gr ai/ha, V2-V3 stage with adjuvants)"
"CS(=O)(=O)c1ccc(C(=O)C2C(=O)CCCC2=O)c([N+](=O)[O-])c1 [mesotrione, 2-[4-(Methylsulfonyl)-2-nitrobenzoyl]cyclohexane-1,3-dione]",commercially relevant tolerance,commercially relevant tolerance,,,
"Cc1nnc(NC(=O)c2ccc(C(F)(F)F)c(S(C)(=O)=O)c2C)o1 [2-methyl-N-(5-methyl-1,3,4-oxadiazol-2-yl)-3-(methylsulfonyl)-4-(trifluoromethyl)benzamide]",,,below 20%,below 20%,
"CS(=O)(=O)c1cc(C(F)(F)F)ccc1C(=O)c1cnoc1C1CC1 [isoxaflutole, (5-cyclopropyl-4-isoxazolyl)[2-(methylsulfonyl)-4-(trifluoromethyl)phenyl]methanone]",crop damage was a bit higher,commercially relevant tolerance,,,
CSc1c(C(F)(F)F)ccc(C(=O)Nc2nnnn2C)c1Cl [2-chloro-3-(methylsulfanyl)-N-(1-methyl-1H-tetrazol-5-yl)-4-(trifluoromethyl)benzamide],,,,,30%

# Source: patent US20210198685A1, “PLANTS CONTAINING ELITE EVENT EE-GM4 AND METHODS AND KITS FOR IDENTIFYING SUCH EVENT IN BIOLOGICAL SAMPLES, AND TREATMENT THEREOF” (priority 2018, published 2021)
